The test concerns Neonatal calvaria (bone resorption). Nature of the test: Inhibition of hPTH-induced bone resorption in cultured neonatal rat calvaria (calcium accumulation in medium). In kind it is cell-based, rat (Wistar). As to conditions: Test Compound 1×10^-5 M with hPTH(1-34) 1×10^-8 M; calvaria halves cultured 6 days at 37° C.; total calcium in medium by OCPC method. Here is the method:
Neonatal calvaria were dissected aseptically from 1-2 day old rat (Wistar), washed in Dulbecco's modified eagle's medium and divided along the sagittal suture. The calvaria halves were pooled and randomized in the different groups. The calvaria halves were cultured separately as free-floating bones in multi-well dishes containing a 2 ml of Dubecco's modified eagle's medium, with 10% heat-inactivated (56° C. for 1 hr) fetal calf serum. Treatment of hPTH(1-34)(1×10 ^-8 M) and the Test Compound (1×10 ^-5 M) was begun at zero time. All incubations were performed at 37° C., under an atmosphere of 95% air and 5% CO2 for 6 days. Bone resorption was determined by measuring the accumulation of calcium in the medium at 6 days. The concentration of total calcium in culture medium was measured by OCPC method with a spectrophotometer (Hitachi model U-3200, Tokyo, Japan).
As comparative data, similar tests were conducted using culture medium with hPTH (1×10^-8 M)only, and culture medium without both hPTH and Test Compound.
Test results were represented in terms of percentage of inhibition calculated by the following formula: [formula] CD the concentration of total calcium in culture medium treated with both hPTH and Test Compound
CO the concentration of total calcium in control culture medium without both hPTH and Test Compound
CP the concentration of total calcium in culture medium treated with hPTH only
For `CC(C)Oc1ccc2c(c1)N(C)C(=O)N(c1ccc(Cl)cc1)S2(=O)=O` [(a), 2-(4-Chlorophenyl)-6-isopropoxy-4-methyl-2H-1,2,4-benzothiadiazine-3(4H)-one 1,1-dioxide], the “Inhibition (%)” value stood at 79.7%.

For the compound `CC(C)COc1ccc2c(c1)N(C)C(=O)N(c1ccc(Cl)cc1)S2(=O)=O` [(b), 2-(4-Chlorophenyl)-4-methyl-6-(2-methylpropoxy)-2H-1,2,4-benzothiadiazine-3(4H)-one 1,1-dioxide], the “Inhibition (%)” value is 56.1%.

For `CN1C(=O)N(c2ccc(Cl)cc2)S(=O)(=O)c2ccc(OCC3CCCCC3)cc21` [(c), 2-(4-Chlorophenyl)-4-methyl-6-cyclohexylmethoxy-2H -1,2,4-benzothiadiazine-3(4H)-one 1,1-dioxide], the “Inhibition (%)” value worked out at 62.5%.

For the compound `CC(C)Oc1ccc2c(c1)N(C)C(=O)N(c1ccc(C(F)(F)F)cc1)S2(=O)=O` [(d), 2-(4-Trifluoromethylphenyl)-4-methyl-6-isopropoxy-2H-1,2,4-benzothiadiazine-3(4H)-one 1,1-dioxide], the “Inhibition (%)” value is reported as 52.9%.

As to `CC(Oc1ccc2c(c1)N(C)C(=O)N(c1ccc(Cl)cc1)S2(=O)=O)C(=O)O` (stereo not drawn) [(e), 2-(4-Chlorophenyl)-6-(l-carboxyethoxy)-4-methyl-2H-1,2,4-benzothiadiazine-3(4H)-one 1,1-dioxide], the “Inhibition (%)” value came out at 67.9%.

In the case of `C[C@@H](Oc1ccc2c(c1)N(C)C(=O)N(c1ccc(Cl)cc1)S2(=O)=O)C(=O)O` [(f), (1R)-(+)-2-(4-Chlorophenyl)-6-(l-carboxyethoxy)-4-methyl-2H-1,2,4-benzothiadiazine-3(4H)-one 1,1-dioxide], the “Inhibition (%)” value is 50.2%.
